# Measurements: patent US20080227797A1, “Pyridopyrimidine Derivatives as Pde4 Inhibitors for the Treatment of Inflammatory and Immune Diseases” (ASTRAZENECA AB, priority 2005, published 2008)
# Target: recombinant Human Phosphodiesterase B2 (PDE4B2) (Homo sapiens, UniProt Q07343)
# Assay: Human Phosphodiesterase B2 Alpha Screen Assay
# Type: biochemical
# Conditions: cAMP substrate, Alpha Screen cAMP kit, 60 minutes at room temperature
# Method in brief: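 Recombinant human PDE4B2 preincubated 15 min at RT with compound in 50 mM Tris pH 7.5, 8.3 mM MgCl2, 1.7 mM EGTA, 0.01% Brij35, then reacted with cAMP for 60 min at RT. Stopped with EDTA; AlphaScreen beads with biotinylated cAMP incubated 5 h in the dark before reading. IC50 from curve fitting.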
# recombinant Human Phosphodiesterase B2 (PDE4B2), sequence (Q07343 1-564 isoform Q07343-2): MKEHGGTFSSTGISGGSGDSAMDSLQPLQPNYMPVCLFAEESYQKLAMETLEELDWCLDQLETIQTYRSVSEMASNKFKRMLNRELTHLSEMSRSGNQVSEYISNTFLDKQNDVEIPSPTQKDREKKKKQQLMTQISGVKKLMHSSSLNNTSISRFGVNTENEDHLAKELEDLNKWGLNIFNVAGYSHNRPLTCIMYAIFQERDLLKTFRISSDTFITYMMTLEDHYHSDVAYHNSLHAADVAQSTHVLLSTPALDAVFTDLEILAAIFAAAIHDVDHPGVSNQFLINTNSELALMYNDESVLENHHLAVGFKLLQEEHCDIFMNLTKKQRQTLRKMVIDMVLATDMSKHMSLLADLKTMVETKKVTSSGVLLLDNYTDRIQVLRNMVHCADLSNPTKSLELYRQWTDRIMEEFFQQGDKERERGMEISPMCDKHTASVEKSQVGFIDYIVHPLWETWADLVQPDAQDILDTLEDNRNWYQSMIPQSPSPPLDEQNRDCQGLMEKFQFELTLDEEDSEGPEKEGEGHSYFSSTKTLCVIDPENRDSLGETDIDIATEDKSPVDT
row,Structure (SMILES),IC50 [nM]
1,"O=C(N[C@H]1CC[C@@H](n2c(=O)c3cc(F)cnc3n(-c3ccc(F)c(F)c3)c2=O)CC1)c1cc[nH]c1 [Example 96, N-{cis-4-[1-(3,4-difluorophenyl)-6-fluoro-2,4-dioxo-1,4-dihydropyrido[2,3-d]pyrimidin-3(2H)-yl]cyclohexyl}-1H-pyrrole-3-carboxamide]",6.68
2,"O=C(N[C@H]1CC[C@@H](n2c(=O)c3cc(F)cnc3n(-c3ccc(F)c(F)c3)c2=O)CC1)c1cc[nH]n1 [Example 98, N-{cis-4-[1-(3,4-difluorophenyl)-6-fluoro-2,4-dioxo-1,4-dihydropyrido[2,3-d]pyrimidin-3(2H)-yl]cyclohexyl}-1H-pyrazole-3-carboxamide]",50.1
3,"O=C(N[C@H]1CC[C@@H](n2c(=O)c3cc(F)cnc3n(-c3ccc(F)c(F)c3)c2=O)CC1)c1cc2cccnc2s1 [Example 105, N-{cis-4-[1-(3,4-difluorophenyl)-6-fluoro-2,4-dioxo-1,4-dihydropyrido[2,3-d]pyrimidin-3(2H)-yl]cyclohexyl}thieno[2,3-b]pyridine-2-carboxamide]",6.03
4,"O=C(N[C@H]1CC[C@@H](n2c(=O)c3cc(F)cnc3n(-c3ccc(F)c(F)c3)c2=O)CC1)c1cc2nccnc2s1 [Example 106, N-{cis-4-[1-(3,4-difluorophenyl)-6-fluoro-2,4-dioxo-1,4-dihydropyrido[2,3-d]pyrimidin-3(2H)-yl]cyclohexyl}thieno[2,3-b]pyrazine-6-carboxamide]",3.89
5,"O=C(N[C@H]1CC[C@@H](n2c(=O)c3cc(F)cnc3n(-c3ccc(F)c(F)c3)c2=O)CC1)c1nc2ncccn2n1 [Example 107, N-{cis-4-[1-(3,4-difluorophenyl)-6-fluoro-2,4-dioxo-1,4-dihydropyrido[2,3-d]pyrimidin-3(2H)-yl]cyclohexyl}[1,2,4]triazolo[1,5-a]pyrimidine-2-carboxamide]",30.1

# The next molecules have a lower IC50 than those just listed; values first:
row,IC50 [nM],Structure (SMILES)
1,2.18,"Cn1cnc(C(=O)N[C@H]2CC[C@@H](n3c(=O)c4cc(F)cnc4n(-c4ccc(F)c(F)c4)c3=O)CC2)c1 [Example 97, N-{cis-4-[1-(3,4-difluorophenyl)-6-fluoro-2,4-dioxo-1,4-dihydropyrido[2,3-d]pyrimidin-3(2H)-yl]cyclohexyl}-1-methyl-1H-imidazole-4-carboxamide]"
2,2.12,"O=C(CCN1CCOCC1)N[C@H]1CC[C@@H](n2c(=O)c3cc(F)cnc3n(-c3ccc(F)c(F)c3)c2=O)CC1 [Example 100, N-{cis-4-[1-(3,4-difluorophenyl)-6-fluoro-2,4-dioxo-1,4-dihydropyrido[2,3-d]pyrimidin-3(2H)-yl]cyclohexyl}-3-morpholin-4-ylpropanamide]"
3,2.09,"O=C(N[C@H]1CC[C@@H](n2c(=O)c3cc(F)cnc3n(-c3ccc(F)c(F)c3)c2=O)CC1)c1nc2ccccc2s1 [Example 104, N-{cis-4-[1-(3,4-difluorophenyl)-6-fluoro-2,4-dioxo-1,4-dihydropyrido[2,3-d]pyrimidin-3(2H)-yl]cyclohexyl}-1,3-benzothiazole-2-carboxamide]"
4,2.05,"C=Cc1ccc(C(=O)N[C@H]2CC[C@@H](n3c(=O)c4cc(F)cnc4n(-c4ccc(F)c(F)c4)c3=O)CC2)cc1 [Example 101, N-{cis-4-[1-(3,4-difluorophenyl)-6-fluoro-2,4-dioxo-1,4-dihydropyrido[2,3-d]pyrimidin-3(2H)-yl]cyclohexyl}-4-vinylbenzamide]"
5,1,"C#Cc1ccc(C(=O)N[C@H]2CC[C@@H](n3c(=O)c4cc(F)cnc4n(-c4ccc(F)c(F)c4)c3=O)CC2)cc1 [Example 102, N-{cis-4-[1-(3,4-difluorophenyl)-6-fluoro-2,4-dioxo-1,4-dihydropyrido[2,3-d]pyrimidin-3(2H)-yl]cyclohexyl}-4-ethynylbenzamide]"
6,0.741,"O=C(N[C@H]1CC[C@@H](n2c(=O)c3cc(F)cnc3n(-c3ccc(F)c(F)c3)c2=O)CC1)c1cc2cccnc2[nH]1 [Example 103, N-{cis-4-[1-(3,4-difluorophenyl)-6-fluoro-2,4-dioxo-1,4-dihydropyrido[2,3-d]pyrimidin-3(2H)-yl]cyclohexyl}-1H-pyrrolo[2,3-b]pyridine-2-carboxamide]"
